pIC50: −log10 of the molar value.
Legend:
[1] = target: T1, CCR2 (Homo sapiens, UniProt P41597); experiment: Binding assay: inhibition of 125I-MCP-1 binding to THP-1 cells; parameters: CCR2 is also expressed in the human monocytic cell line THP-1; endogenous in cells; host or cells: THP-1 (human monocytic cell line), whole cells; settings: THP-1 cells, 0.1 nM 125I-MCP-1, 1 hr at room temperature; read-out: Inhibition of 125I-MCP-1 binding to THP-1 cells, IC50
T1 sequence (P41597 1-360 isoform P41597-2): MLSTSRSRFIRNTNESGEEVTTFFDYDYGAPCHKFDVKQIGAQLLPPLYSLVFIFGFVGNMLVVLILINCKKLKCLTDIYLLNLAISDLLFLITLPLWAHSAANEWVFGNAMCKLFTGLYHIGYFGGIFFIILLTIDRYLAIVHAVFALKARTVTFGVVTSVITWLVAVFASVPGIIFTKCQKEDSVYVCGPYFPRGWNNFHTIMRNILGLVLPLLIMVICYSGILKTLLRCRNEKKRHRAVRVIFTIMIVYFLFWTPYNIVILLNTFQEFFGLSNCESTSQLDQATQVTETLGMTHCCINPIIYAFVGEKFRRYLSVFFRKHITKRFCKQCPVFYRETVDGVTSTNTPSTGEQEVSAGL
Experimental: Antagonism of the CCR2 receptor is determined by a binding assay using the human monocytic cell line THP-1. Cells are suspended in assay buffer (RPMI+1% BSA+25 mM HEPES) at 3×10^6 cells/ml and an aliquot (180 μl) added to a 0.5 ml siliconized Eppendorf tube. […] After incubation for 1 hr at room temperature, the cell suspension is centrifuged through oil and the cell pellets counted to quantitate cell-bound ligand. Nonspecific (NS) binding of radioligand is determined by the addition of 100 nM cold MCP-1. Control binding is determined by the addition of buffer without compound.

[2] = target: T1, CCR2; experiment: Chemotaxis assay: MCP-1 induced migration of THP-1 cells; format: cell-based; parameters: endogenous in cells; host or cells: THP-1 cells; settings: 3 nM MCP-1, 37° C. for 2 hr, read-out: Inhibition of cell chemotaxis, IC50
Experimental: Antagonism of CCR2 function is determined by a chemotaxis assay. MCP-1 is prepared in buffer (Hanks+0.1% human serum albumin) at 3 nM concentration and aliquoted into the bottom chambers of a 96-well chemotaxis plate (Neuroprobe). THP-1 cells are suspended in the same buffer at 1×10^7 cells/ml and compound added at various concentrations to the aliquots of cells. The cell and compound mixture is added to the top of the polycarbonate membrane (5 μm pore diameter) and the chemotaxis plate incubated at 37° C. for 2 hr. After the unmigrated cells are scraped off the top of the filter, the plate is gently centrifuged and the membrane removed. Cells which migrate to the bottom chamber are quantitated by counting with a hemacytometer. Spontaneous chemotaxis is determined by measuring cell migration in the absence of chemokine. Chemotaxis of a positive control is determined by measuring cell migration without compound. Inhibition of cell chemotaxis is determined as an IC50.

SMILES	pIC50 [1]	pIC50 [2]	melting point [°C]
CC(=O)C1=C(O)C(=O)N(c2ccc(C(C)C)cc2)C1C1CCCCC1 (racemic) [Compound 52, 4-acetyl-5-cyclohexyl-3-hydroxy-1-(4-isopropylphenyl)-1,5-dihydro-2H-pyrrol-2-one]	≥ 5.30	–	–
CC(=O)C1=C(O)C(=O)N(c2ccc(Cl)cc2)[C@@H]1C12CC3CC(CC1C3)C2 [Compound 156, (R)-4-acetyl-1-(4-chlorophenyl)-3-hydroxy-5-tricyclo[3.3.1.0˜3,7˜]non-3-yl-1,5-dihydro-2H-pyrrol-2-one]	≥ 5.30	≥ 5.30	–
CC(=O)C1=C(O)C(=O)N(c2ccc(C)cc2)C1CC(C)(C)C (racemic) [Compound 78, 4-acetyl-3-hydroxy-1-(4-methylphenyl)-5-neopentyl-1,5-dihydro-2H-pyrrol-2-one]	≥ 5.30	–	–
CC(=O)C1=C(O)C(=O)N(c2ccc(Cl)c(C)c2)C1C1CCCC1 (racemic) [Compound 69, 4-acetyl-1-(4-chloro-3-methylphenyl)-5-cyclopentyl-3-hydroxy-1,5-dihydro-2H-pyrrol-2-one]	≥ 5.30	≥ 5.30	–
CC(=O)C1=C(O)C(=O)N(c2ccc(C)cc2)C1CC(C)C (racemic) [Compound 40, 4-acetyl-3-hydroxy-5-isobutyl-1-(4-methylphenyl)-1,5-dihydro-2H-pyrrol-2-one]	≥ 5.30	–	–
CC(=O)C1=C(O)C(=O)N(Cc2ccccc2)C1C1CCCCC1 (racemic) [Compound 7, 4-acetyl-1-benzyl-5-cyclohexyl-3-hydroxy-1,5-dihydro-2H-pyrrol-2-one]	≥ 5.30	–	–
CC(=O)C1=C(O)C(=O)N(c2ccc(C)cc2)C1C1CC2C=CC1C2 (stereo not shown) [Compound 79, 4-acetyl-5-bicyclo[2.2.1]hept-5-en-2-yl-3-hydroxy-1-(4-methylphenyl)-1,5-dihydro-2H-pyrrol-2-one]	≥ 5.30	–	–
CCC(CC)C1C(C(C)=O)=C(O)C(=O)N1c1ccc(C)cc1 (racemic) [Compound 13, 4-acetyl-5-(1-ethylpropyl)-3-hydroxy-1-(4-methylphenyl)-1,5-dihydro-2H-pyrrol-2-one]	≥ 5.30	–	–
CC(=O)C1=C(O)C(=O)N(c2ccc(Cl)cc2)C1C1CC2C=CC1C2 (stereo not shown) [Compound 121, 4-acetyl-5-bicyclo[2.2.1]hept-5-en-2-yl-1-(4-chlorophenyl)-3-hydroxy-1,5-dihydro-2H-pyrrol-2-one]	≥ 5.30	–	–
CC(=O)C1=C(O)C(=O)N(c2ccc(Cl)c(C)c2)[C@@H]1C1CCCC1 [Compound 135, (R)-4-acetyl-1-(4-chloro-3-methylphenyl)-5-cyclopentyl-3-hydroxy-1,5-dihydro-2H-pyrrol-2-one]	≥ 5.30	–	–
CC(=O)C1=C(O)C(=O)N(c2ccc(C)cc2)C1C1CCCCC1 (racemic) [Compound 10, 4-acetyl-5-cyclohexyl-3-hydroxy-1-(4-methylphenyl)-1,5-dihydro-2H-pyrrol-2-one]	≥ 5.30	≥ 5.30	–
COc1ccc(N2C(=O)C(O)=C(C(C)=O)C2C2CCCCC2)cc1 (racemic) [Compound 14, 4-acetyl-5-cyclohexyl-3-hydroxy-1-(4-methoxyphenyl)-1,5-dihydro-2H-pyrrol-2-one]	≥ 5.30	–	–
CC(=O)C1=C(O)C(=O)N(c2c(F)cc(Cl)cc2F)C1C1CCCCC1 (racemic) [Compound 120, 4-acetyl-1-(4-chloro-2,6-difluorophenyl)-5-cyclohexyl-3-hydroxy-1,5-dihydro-2H-pyrrol-2-one]	≥ 5.30	–	–
Cc1ccc(N2C(=O)C(O)=C(C(N)=O)C2C2CCCCC2)cc1 (racemic) [Compound 131, 2-cyclohexyl-4-hydroxy-1-(4-methylphenyl)-5-oxo-2,5-dihydro-1H-pyrrole-3-carboxamide]	≥ 5.30	–	–
CC(=O)C1=C(S)C(=O)N(c2ccc(Cl)cc2)C1C1CCCCC1 (racemic) [Compound 157, 4-acetyl-1-(4-chlorophenyl)-5-cyclohexyl-3-mercapto-1,5-dihydro-2H-pyrrol-2-one]	≥ 5.30	–	–
CC(=O)C1=C(O)C(=O)N(c2ccc(Cl)cc2)C1C1CCC(C)CC1 (racemic) [Compound 150, 4-acetyl-1-(4-chlorophenyl)-3-hydroxy-5-(4-methylcyclohexyl)-1,5-dihydro-2H-pyrrol-2-one]	≥ 5.30	–	–
CC(=O)C1=C(O)C(=O)N(c2ccc(Br)cc2F)C1C1CCCCC1 (racemic) [Compound 142, 4-acetyl-1-(4-bromo-2-fluorophenyl)-5-cyclohexyl-3-hydroxy-1,5-dihydro-2H-pyrrol-2-one]	≥ 5.30	–	–
CCOC(=O)OC1=C(C(C)=O)[C@@H](C2CCCCC2)N(c2ccc(Cl)cc2F)C1=O [Compound P1, (5R)-4-acetyl-1-(4-chloro-2-fluorophenyl)-5-cyclohexyl-2-oxo-2,5-dihydro-1H-pyrrol-3-yl ethyl carbonate]	–	–	74
CC(=O)C1=C(O)C(=O)N(c2ccc(C)c(F)c2)C1C1CCCCC1 (racemic) [Compound 47, 4-acetyl-5-cyclohexyl-1-(3-fluoro-4-methylphenyl)-3-hydroxy-1,5-dihydro-2H-pyrrol-2-one]	≥ 5.30	–	–
CCCC1C(C(C)=O)=C(O)C(=O)N1c1ccc(C)c(Cl)c1 (racemic) [Compound 76, 4-acetyl-1-(3-chloro-4-methylphenyl)-3-hydroxy-5-propyl-1,5-dihydro-2H-pyrrol-2-one]	≥ 5.30	–	–
CC(=O)C1=C(O)C(=O)N(c2ccccc2)C1C1CCCCC1 (racemic) [Compound 23, 4-acetyl-5-cyclohexyl-3-hydroxy-1-phenyl-1,5-dihydro-2H-pyrrol-2-one]	≥ 5.30	–	–
CC(=O)C1=C(O)C(=O)N(c2ccc(Cl)cc2)C1C1CCCCC1 (racemic) [Compound 24, 4-acetyl-1-(4-chlorophenyl)-5-cyclohexyl-3-hydroxy-1,5-dihydro-2H-pyrrol-2-one]	≥ 5.30	≥ 5.30	–
CC(=O)C1=C(O)C(=O)N(c2ccc(Cl)c(C(F)(F)F)c2)C1C1CCCCC1 (racemic) [Compound 55, 4-acetyl-1-[4-chloro-3-(trifluoromethyl)phenyl]-5-cyclohexyl-3-hydroxy-1,5-dihydro-2H-pyrrol-2-one]	≥ 5.30	–	–
C=C1CCC(C2C(C(C)=O)=C(O)C(=O)N2c2ccc(Cl)cc2)CC1 (racemic) [Compound 127, 4-acetyl-1-(4-chlorophenyl)-3-hydroxy-5-(4-methylenecyclohexyl)-1,5-dihydro-2H-pyrrol-2-one]	≥ 5.30	–	–
CC(=O)C1=C(O)C(=O)N(c2c(F)cc(Cl)cc2F)[C@@H]1C1CCCCC1 (stereo in doubt) [Compound 148, (R)-4-acetyl-1-(4-chloro-2,6-difluorophenyl)-5-cyclohexyl-3-hydroxy-1,5-dihydro-2H-pyrrol-2-one]	≥ 5.30	–	–
CC(=O)C1=C(O)C(=O)N(c2ccc(Cl)c(C)c2)C1C1CCCCC1 (racemic) [Compound 53, 4-acetyl-1-(4-chloro-3-methylphenyl)-5-cyclohexyl-3-hydroxy-1,5-dihydro-2H-pyrrol-2-one]	≥ 5.30	≥ 5.30	–
CC(=O)C1=C(O)C(=O)N(c2cccc(C)c2)C1C1CCCCC1 (racemic) [Compound 16, 4-acetyl-5-cyclohexyl-3-hydroxy-1-(3-methylphenyl)-1,5-dihydro-2H-pyrrol-2-one]	≥ 5.30	–	–
CCc1ccc(N2C(=O)C(O)=C(C(C)=O)C2C2CCCCC2)cc1 (racemic) [Compound 77, 4-acetyl-5-cyclohexyl-1-(4-ethylphenyl)-3-hydroxy-1,5-dihydro-2H-pyrrol-2-one]	≥ 5.30	–	–
CC(=O)C1=C(O)C(=O)N(c2ccc(F)cc2)[C@@H]1C1CCCCC1 [Compound 139, (R)-4-acetyl-5-cyclohexyl-1-(4-fluorophenyl)-3-hydroxy-1,5-dihydro-2H-pyrrol-2-one]	≥ 5.30	–	–

— US6727275B2, “Pyrrolidinone derivatives” (UCB, S.A./N.V., priority 2001, dated 2004)
